Columns and labels:
NIH3T3 fibroblasts = test: Inhibition test of compounds on NIH3T3 fibroblasts (MTT method); type: cell-based; details: Mus musculus, relative IC50 obtained from multiple and IC50 of fluorofenidone on a certain plate
Experimental: Inhibition Test of Compounds on NIH3T3 fibroblasts
An MTT method is used and comprises steps of: culturing cells in DMEM culture medium including 5% calf serum and preparing the cells into cell suspension of 3×10^4/ml; inoculating in 96-well plate according to 100 μl/well; transferring new culture medium including compounds with different concentration, fluorofenidone and 1% calf serum after cells are adhered, wherein three repeated wells are provided for each concentration; respectively adding 100 μl of MTT solution in each well after 48 hours and 72 hours of administrating (the culture medium is prepared into 5 mg/ml and kept in dark after filtering), sucking out MTT after 4 hours; adding 150 μl of DMSO which is the dissolving liquid of MTT; after 10 min and MTT is completely dissolved, measuring OD value by ELISA reader; calculating IC50 values of fluorofenidone and measured compounds according to inhibition ratio; calculating multiple of activities of measured compounds and fluorofenidone according to IC50 values of fluorofenidone and measured compounds; and obtaining relative IC50 value of measured compounds according to multiple and IC50 value of fluorofenidone on a certain plate.

[1] = test system: rat unilateral ureteral obstruction renal fibrosis model; test: Treatment effect in a rat unilateral ureteral obstruction renal fibrosis model (HE and Masson staining); type: in vivo
Experimental: Observation of Treatment Effect of Compound 13 in a Rat Unilateral Ureteral Obstruction Renal Fibrosis Model
Nine male SD rats of 188-213 g, coming from Hunan Slac Laboratory Animals Co., Ltd., are illuminated for 12 hours every day; feed is provided by Shanghai Slac Laboratory Animals Co., Ltd.; and drinking water is provided by Department of Laboratory Animal Science of Central South University.
(1) Randomization: nine rats are divided into three groups at random, namely a normal group (n=3); a model group (n=3) and a treatment group (n=3) treated by compound 13 of 15 mg/kg; three rats are in a hutch; and the experimental animals are adaptively fed for two days. […]
HE stained slices of renal tissues are successively observed in fives fields of view of renal tubulointerstitium on upper left side, upper right side, lower left side, lower right side and middle portion by a low power lens and are evaluated according to eight indexes of renal interstitium lesion: renal tubular epithelial cell vacuolar degeneration, renal tubular ectasia, renal tubular atrophy, red cell cast, protein cast, interstitial edema, interstitial fibrosis and interstitial inflammatory cell infiltration; an average value is calculated as the index of renal tubulointerstitial lesion of the sample; and the evaluation standard is based on the reference of Radford M G Jr, Donadio J V Jr, Bergstralh E J, et al. Predicting renal outcome in IgA nephropathy. […]
Masson stained slices of renal tissues are observed in 20 fields of vision for each sample at random under 400× light microscope; percent of blue-stained collagens in the fields of vision is calculated; an average value is determined after semi-quantitative evaluation: no positive staining, 0; <25%, 1; 25-50%, 2; 50-75%, 3; >75%, 4; and the evaluation standard is based on references. […]

SMILES | IC50 (NIH3T3 fibroblasts; 48 hours after administration) [µM] | IC50 (NIH3T3 fibroblasts; 72 hours after administration) [µM] | Score (X ± S), renal interstitium collagens of left kidneys, MASSON staining ([1]; SD rats, UUO, 15 mg/kg intragastric once per day for 12 days, n=3, model group 2.45 ± 0.38, normal group 0.25 ± 0.00, p < 0.01 vs model) | Score (X ± S), index of renal tubulointerstitial lesions of obstruction kidneys, HE staining ([1]; SD rats, UUO, 15 mg/kg intragastric once per day for 12 days, n=3, model group 9.00 ± 1.00, normal group 0.33 ± 0.12, p < 0.01 vs model) | Treatment effect on renal fibrosis (conclusion) ([1]; rat UUO model, 15 mg/kg)
O=c1ccc(C(F)(F)F)cn1Cc1ccccc1F [Compound 20, 1-(2-fluorobenzyl)-5-(trifluoromethyl)pyridin-2(1H)-one] | 273 | 393 |  |  | 
Cc1ccc(=O)n(-c2cccc(F)c2)c1 [Fluorofenidone, reference compound] | 4430 | 3520 |  |  | 
O=c1ccc(C(F)(F)F)cn1Cc1ccccc1NCCO [Compound 21, 1-(2-(2-hydroxyethylamino)benzyl)-5-(trifluoromethyl)pyridin-2(1H)-one] | 664 | 587 |  |  | 
O=c1ccc(C(F)(F)F)cn1Cc1ccccc1NCCN1CCOCC1 [Compound 25, 1-(2-(2-morpholinoethylamino)benzyl)-5-(trifluoromethyl)pyridin-2(1H)-one] | 368 | 264 |  |  | 
O=c1ccc(C(F)(F)F)cn1Cc1ccc(NCCCN2CCCCC2)cc1 [Compound 4, 1-(4-(((3-piperidin-1-yl)propyl)amino)benzyl)-5-(trifluoromethyl)pyridin-2(1H)-one] | 957 | 144 |  |  | 
CN1CCN(CCCNc2ccc(Cn3cc(C(F)(F)F)ccc3=O)cc2)CC1 [Compound 5, 1-(4-((3-(4-methyl-piperazin-1-yl)propyl)amino)benzyl)-5-(trifluoromethyl)pyridin-2(1H)-one] | 141 | 98 |  |  | 
CN1CCN(CCNc2ccc(Cn3cc(C(F)(F)F)ccc3=O)cc2)CC1 [Compound 9, 1-(4-((2-(4-methyl-piperazin-1-yl)ethyl)amino)benzyl)-5-(trifluoromethyl)pyridin-2(1H)-one] | 181 | 120 |  |  | 
Nc1ccc(Cn2cc(C(F)(F)F)ccc2=O)cc1 [Compound 2, 1-(4-amino-benzyl)-5-(trifluoromethyl)pyridin-2(1H)-one] | 1390 | 1510 |  |  | 
Nc1ccccc1Cn1cc(C(F)(F)F)ccc1=O [Compound 17, 1-(2-aminobenzyl)-5-(trifluoromethyl)pyridin-2(1H)-one] | 1810 | 1270 |  |  | 
O=c1ccc(C(F)(F)F)cn1Cc1ccc(NCCN2CCCCC2)cc1 [Compound 7, 1-(4-((2-(piperidyl-1-yl)ethyl)amino)benzyl)-5-(trifluoromethyl)pyridin-2(1H)-one] | 4180 | 340 |  |  | 
O=c1ccc(C(F)(F)F)cn1Cc1ccc(NCCO)cc1 [Compound 6, 1-(4-((2-hydroxyethyl)amino)benzyl)-5-(trifluoromethyl)pyridin-2(1H)-one] | 1010 | 638 |  |  | 
O=c1ccc(C(F)(F)F)cn1Cc1ccccc1 [Structure IV, reference compound] | 1160 | 729 |  |  | 
O=c1ccc(C(F)(F)F)cn1Cc1cccc(Cl)c1 [Compound 18, 1-(3-chlorobenzyl)-5-(trifluoromethyl)pyridin-2(1H)-one] | 1460 | 1350 |  |  | 
O=c1ccc(C(F)(F)F)cn1Cc1ccc(NCCN2CCN(CCO)CC2)cc1 [Compound 11, 1-(4-((2-(4-(2-hydroxyethyl)piperazin-1-yl)ethyl)amino)benzyl)-5-(trifluoromethyl)pyridin-2(1H)-one] | 526 | 131 |  |  | 
O=c1ccc(C(F)(F)F)cn1Cc1ccc(NCCCN2CCOCC2)cc1 [Compound 3, 1-(4-((3-morpholinylpropyl)amino)benzyl)-5-(trifluoromethyl)pyridin-2(1H)-one] | 424 | 229 |  |  | 
O=c1ccc(C(F)(F)F)cn1Cc1ccccc1NCCN1CCNCC1 [Compound 22, 1-(2-(2-(piperazin-1-yl)ethylamino)benzyl)-5-(trifluoromethyl)pyridin-2(1H)-one] | 168 | 291 |  |  | 
O=c1ccc(C(F)(F)F)cn1Cc1ccc([N+](=O)[O-])cc1 [Compound 1, 1-(4-nitrobenzyl)-5-(trifluoromethyl)pyridin-2(1H)-one] | 552 | 470 |  |  | 
O=c1ccc(C(F)(F)F)cn1Cc1c(Cl)cccc1Cl [Compound 14, 1-(2,6-dichlorobenzyl)-5-(trifluoromethyl)pyridin-2(1H)-one] | 346 | 182 |  |  | 
O=c1ccc(C(F)(F)F)cn1Cc1ccccc1[N+](=O)[O-] [Compound 16, 1-(2-nitrobenzyl)-5-(trifluoromethyl)pyridin-2(1H)-one] | 1040 | 1030 |  |  | 
O=c1ccc(C(F)(F)F)cn1Cc1ccc(NCCN2CCOCC2)cc1 [Compound 8, 1-(4-((2-morpholinylethyl)amino)benzyl)-5-(trifluoromethyl)pyridin-2(1H)-one] | 367 | 229 |  |  | 
CC(=O)Nc1ccc(Cn2cc(C(F)(F)F)ccc2=O)cc1 [Compound 13, 1-(4-acetamide-benzyl)-5-(trifluoromethyl)pyridin-2(1H)-one] | 128 | 68 | 1.52 ± 0.16^⋆⋆** | 7.00 ± 0.35^⋆⋆** | can effectively treat renal fibrosis
COc1ccc(Cn2cc(C(F)(F)F)ccc2=O)cc1 [Compound 19, 1-(4-methoxybenzyl)-5-(trifluoromethyl)pyridin-2(1H)-one] | 301 | 384 |  |  | 
O=c1ccc(C(F)(F)F)cn1Cc1ccc(F)cc1 [Compound 15, 1-(4-fluorobenzyl)-5-(trifluoromethyl)pyridin-2(1H)-one] | 1080 | 1090 |  |  | 

— patent US8377932B2, “Preparation of 1-(substituted benzyl)-5-trifluoromethyl-2(1H)pyridone compounds and salts thereof and their applications” (Central South University, priority 2009, dated 2013)
